In publication PMC8549013 (Neuropharmacology, 2021):

How the values were obtained:
hDAT = conditions: same technique, ref Steele and Eltit, 2019; cited from earlier work
[1] = target: A117S/D121G/P323V dDAT (triple dDAT mutant) (Drosophila melanogaster, UniProt Q7K4Y6, A117S/D121G/P323V); assay: MAT-Ca2+ assay: inhibition of DA-induced Ca2+ signals; type: cell-based
[2] = target: A117S/D121G/P323V/F318C dDAT (quadruple dDAT mutant) (Drosophila melanogaster, UniProt Q7K4Y6, A117S/D121G/F318C/P323V); assay: as above; type: cell-based
NET = conditions: rat brain synaptosomes; ref Gannon et al., 2018; cited from earlier work
wt hDAT = wt hDAT (Homo sapiens, UniProt Q01959); assay: MAT-Ca2+ assay: inhibition of DA-induced Ca2+ signals; type: cell-based; conditions: DA 10 μM; for pIC50 ± SEM: ~35°C, Table 2
wt dDAT = wt dDAT (Drosophila melanogaster, UniProt Q7K4Y6); assay: as above; type: cell-based; conditions: DA 10 μM; for pIC50 ± SEM: bottom of fit constrained to zero for MDPV
A117S dDAT mutant = A117S dDAT mutant (Drosophila melanogaster, UniProt Q7K4Y6, A117S); assay: as above; type: cell-based
F318C dDAT mutant = F318C dDAT mutant (Drosophila melanogaster, UniProt Q7K4Y6, F318C); assay: as above; type: cell-based
P323V dDAT mutant = P323V dDAT mutant (Drosophila melanogaster, UniProt Q7K4Y6, P323V); assay: as above; type: cell-based
D121G dDAT mutant = D121G dDAT mutant (Drosophila melanogaster, UniProt Q7K4Y6, D121G); assay: as above; type: cell-based
[3] = system: human dopamine transporter (hDAT); conditions: ref Baumann et al., 2013; Cameron et al., 2013b; Steele and Eltit, 2019; cited from earlier work
A117S/D121G dDAT mutant = A117S/D121G dDAT mutant (Drosophila melanogaster, UniProt Q7K4Y6, A117S/D121G); assay: MAT-Ca2+ assay: inhibition of DA-induced Ca2+ signals; type: cell-based
[4] = Table 2 dataset, with DA pre-pulse
[5] = Table 1 dataset, without DA pre-pulse

## NCCc1ccc(O)c(O)c1 [DA, dopamine]
hDAT
  pEC50 of DA to produce Ca2+ signals: 5.89 ± 0.04

## CC(C(=O)c1ccc2c(c1)OCO2)N1CCCC1 (stereo not drawn) [MDPPP, 3,4-methylenedioxy-α-pyrrolidinopropiophenone]
[1]; [4]
  IC50: 16000 nM
  pIC50 ± SEM: 4.80 ± 0.02 M
[2]; [4]
  IC50: 13000 nM
  pIC50 ± SEM: 4.89 ± 0.01 M
NET
  weaker inhibiting uptake at NET than at DAT: ~ 5 fold
Wt hDAT
  IC50: 3420 nM
  pIC50 ± SEM: 5.47 ± 0.02 M
Wt dDAT
  IC50: > 30000 nM
  pIC50 ± SEM: Inactive

## CCCC(C(=O)c1ccc2c(c1)OCO2)N1CCCC1 (stereo not drawn) [MDPV, 3,4-Methylenedioxypyrovalerone]
A117S dDAT mutant; A117S dDAT
  IC50: 8390 nM
  pIC50 ± SEM: 5.08 ± 0.04 M
A117S dDAT mutant; A117S dDAT vs wt dDAT
  improvement in potency vs wt dDAT: ~ 3 fold
F318C dDAT mutant; F318C dDAT
  IC50: 8240 nM
  pIC50 ± SEM: 5.08 ± 0.02 M
F318C dDAT mutant; F318C dDAT vs wt dDAT
  improvement in potency vs wt dDAT: ~ 3 fold
[1]; Table 1 dataset
  IC50: 1180 nM
[1]; [5]
  IC50: 1180 nM
  pIC50 ± SEM: 5.93 ± 0.02 M
[1]; Table 2 dataset
  IC50: 1210 nM
[1]; [4]
  IC50: 1210 nM
  pIC50 ± SEM: 5.92 ± 0.02 M
P323V dDAT mutant; P323V dDAT
  IC50: 9690 nM
  pIC50 ± SEM: 5.01 ± 0.03 M
P323V dDAT mutant; P323V dDAT vs wt dDAT
  improvement in potency vs wt dDAT: ~ 3 fold
D121G dDAT mutant
  IC50: 4650 nM
  pIC50 ± SEM: 5.33 ± 0.04 M
[3]
  more potent than cocaine in blocking DA uptake through DAT: ~ 50 fold
[2]; Table 1 dataset
  IC50: 250 nM
[2]; [5]
  IC50: 253 nM
  pIC50 ± SEM: 6.60 ± 0.03 M
[2]; [4]
  IC50: 251 nM
  pIC50 ± SEM: 6.60 ± 0.04 M
NET
  weaker inhibiting uptake at NET than at DAT: ~ 4 fold
Wt hDAT
  IC50: 34 nM
  pIC50 ± SEM: 7.47 ± 0.01 M
A117S/D121G dDAT mutant
  IC50: 2210 nM
  pIC50 ± SEM: 5.66 ± 0.04 M
Wt dDAT
  IC50: 27400 nM
  pIC50 ± SEM: 4.56 ± 0.02 M

## CCCC(C(=O)c1ccccc1)N1CCCC1 (stereo not drawn) [α-PVP, α-pyrrolidinovalerophenone]
[1]; Table 2 dataset
  IC50: 1530 nM
[1]; [4]
  IC50: 1530 nM
  pIC50 ± SEM: 5.82 ± 0.03 M
[2]; Table 2 dataset
  IC50: 1090 nM
[2]; [4]
  IC50: 1090 nM
  pIC50 ± SEM: 5.96 ± 0.03 M
NET
  weaker inhibiting uptake at NET than at DAT: equipotent
Wt hDAT
  IC50: 51 nM
  pIC50 ± SEM: 7.29 ± 0.01 M
Wt dDAT
  IC50: 20700 nM
  pIC50 ± SEM: 4.68 ± 0.03 M
